Assay results published in patent US10307413B2, “Tetrahydro- and dihydro-isoquinoline PRMT5 inhibitors and uses thereof” (Epizyme, Inc., priority 2013, dated 2019).
Read-outs that look alike come from different tables or passages of the source.

Experiments:
Z-138 cell line = assay: Z-138 Proliferation Assay (Cell Titer Glo, 5 days); type: cell-based; conditions: Homo sapiens, read-out: Proliferation EC50
Summary of the method: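 Z-138 cells exposed 5 days at 37 °C, 5% CO2 to nine-point 3-fold dilutions (final top 20 μM, 0.2% DMSO), in triplicate. Viability read as ATP by CellTiter-Glo luminescence; IC50 from 4-parameter fit of normalized dose-response curves.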

PRMT5/MEP50 = PRMT5/MEP50 (Homo sapiens (Human), UniProt O14744); assay: PRMT5 Biochemical Assay (PRMT5/MEP50 enzyme assay on peptide substrate, 3H-SAM Flashplate)
Text: S-adenosylmethionine (SAM), S-adenosylhomocysteine (SAH), bicine, KCl, Tween20, dimethylsulfoxide (DMSO), bovine skin gelatin (BSG), and Tris(2-carboxyethyl)phosphine hydrochloride solution (TCEP) were purchased from Sigma-Aldrich at the highest level of purity possible. ^3H-SAM was purchase from American Radiolabeled Chemicals with a specific activity of 80 Ci/mmol. 384-well streptavidin Flashplates were purchased from PerkinElmer.
Peptide representative of human histone H4 residues 1-15 was synthesized with a C-terminal linker-affinity tag motif and a C-terminal amide cap by 21st Century Biochemicals.
The amplified genes were sublconed into pENTR/D/TEV (Life Technologies) and subsequently transferred by Gateway™ attL×attR recombination to pDEST8 baculovirus expression vector (Life Technologies).
Protein over-expression was accomplished by infecting exponentially growing Spodoptera frugiperda (SF9) cell culture at 1.2×10^6 cell/ml with a 5000 fold dilution of BIIC stock. Infections were carried out at 27° C. for 72 hours, harvested by centrifugation, and stored at −80° C. for purification.
Flag-PRMT5/6His-MeP50 was eluted with 300 mM Imidazole in the same buffer.
General Procedure for PRMT5/MEP50 Enzyme Assays on Peptide Substrates.
The assays were all performed in a buffer consisting of 20 mM Bicine (pH=7.6), 1 mM TCEP, 0.005% BSG, and 0.002% Tween20, prepared on the day of use. […] DMSO (1 ul) was added to Columns 11, 12, 23, 24, rows A-H for the maximum signal control and 1 ul of SAH, a known product and inhibitor of PRMT5/MEP50, was added to columns 11, 12, 23, 24, rows I-P for the minimum signal control. A cocktail (40 ul) containing the PRMT5/MEP50 enzyme and the peptide was added by Multidrop Combi (Thermo-Fisher). The compounds were allowed to incubate with PRMT5/MEP50 for 30 min at 25 degrees Celsius, then a cocktail (10 ul) containing ^3H-SAM was added to initiate the reaction (final volume=51 ul). […] The assays were stopped by the addition of non-radioactive SAM (10 ul) to a final concentration of 600 uM, which dilutes the ^3H-SAM to a level where its incorporation into the peptide substrate is no longer detectable. 50 ul of the reaction in the 384-well polypropylene plate was then transferred to a 384-well Flashplate and the biotinylated peptides were allowed to bind to the streptavidin surface for at least 1 hour before being washed three times with 0.1% Tween20 in a Biotek ELx405 plate washer. The plates were then read in a PerkinElmer TopCount plate reader to measure the quantity of ^3H-labeled peptide bound to the Flashplate surface, measured as disintegrations per minute (dpm) or alternatively, referred to as counts per minute (cpm).
[formula] [formula] Where dpm=disintegrations per minute, cmpd=signal in assay well, and min and max are the respective minimum and maximum signal controls.
[formula] [formula] Where top and bottom are the normally allowed to float, but may be fixed at 100 or 0 respectively in a 3-parameter fit. The Hill Coefficient normally allowed to float but may also be fixed at 1 in a 3-parameter fit. Y is the % inhibition and X is the compound concentration.

[1] = system: symmetric di-methyl arginine in Z-138 cells; assay: Z-138 Methylation Assay (In Cell Western for symmetric di-methyl arginine and DNA content); type: cell-based; conditions: Homo sapiens, read-out: ICW EC50
Summary of the method: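 Z-138 cells (50,000 cells/mL) treated with compound 96 h at 37 °C, then fixed and stained for symmetric di-methyl arginine (800 nm) with DRAQ5 DNA counterstain (700 nm) on Licor Odyssey.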

[2] = 120 h, Z-138 cells, 5 days, Cell Titer Glo

Sequence of PRMT5/MEP50 (O14744 other isoform, or with tags, fused parts or gaps): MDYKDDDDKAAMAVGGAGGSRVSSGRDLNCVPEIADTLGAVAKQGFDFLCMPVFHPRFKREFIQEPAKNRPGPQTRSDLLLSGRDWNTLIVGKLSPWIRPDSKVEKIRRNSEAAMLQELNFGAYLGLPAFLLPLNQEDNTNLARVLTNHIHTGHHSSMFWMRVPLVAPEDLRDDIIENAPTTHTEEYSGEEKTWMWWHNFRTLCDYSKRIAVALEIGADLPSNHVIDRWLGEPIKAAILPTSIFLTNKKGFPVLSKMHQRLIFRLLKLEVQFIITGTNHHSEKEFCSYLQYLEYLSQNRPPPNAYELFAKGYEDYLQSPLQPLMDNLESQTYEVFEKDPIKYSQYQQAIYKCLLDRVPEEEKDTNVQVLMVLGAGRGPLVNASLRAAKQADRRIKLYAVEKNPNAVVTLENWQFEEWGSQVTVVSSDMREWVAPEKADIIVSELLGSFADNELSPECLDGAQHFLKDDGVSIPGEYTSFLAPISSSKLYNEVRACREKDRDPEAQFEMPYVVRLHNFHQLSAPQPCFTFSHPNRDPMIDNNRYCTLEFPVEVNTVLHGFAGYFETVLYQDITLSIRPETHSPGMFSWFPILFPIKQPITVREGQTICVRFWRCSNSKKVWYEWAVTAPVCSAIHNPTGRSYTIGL
Sequence of PRMT5/MEP50 (Q9BQA1 other isoform, or with tags, fused parts or gaps partner): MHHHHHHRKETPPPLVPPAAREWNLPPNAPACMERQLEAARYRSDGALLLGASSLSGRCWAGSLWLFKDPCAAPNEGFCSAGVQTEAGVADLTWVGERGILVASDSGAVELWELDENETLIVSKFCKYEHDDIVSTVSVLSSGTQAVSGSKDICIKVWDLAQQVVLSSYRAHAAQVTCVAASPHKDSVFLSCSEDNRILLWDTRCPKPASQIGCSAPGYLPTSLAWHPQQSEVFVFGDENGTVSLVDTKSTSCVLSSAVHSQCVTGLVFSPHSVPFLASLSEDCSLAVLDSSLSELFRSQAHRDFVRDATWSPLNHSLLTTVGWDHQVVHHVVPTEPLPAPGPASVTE

Compound | EC50 (Z-138 cell line; 120 h, Z-138 cells, 5 days) | IC50 (PRMT5/MEP50) | EC50 [1] | EC50 (Z-138 cell line; [2]) | IC50 (PRMT5/MEP50; PRMT5 biochemical assay) | EC50 ([1]; In Cell Western methylation) | EC50 (Z-138 cell line; Z-138, 120 h)
O=C(NC[C@H](O)CN1CCc2ccccc2C1)c1ccc2[nH]nnc2c1 [Compound 305] | 101 to 1000 nM | < 100 nM | < 100 nM | – | – | – | –
CC(C)Oc1nc(NC2CNC2)cc(C(=O)NC[C@H](O)CN2CCc3ccccc3C2)n1 [Compound 467] | – | – | – | 101 to 1000 nM | < 100 nM | 101 to 1000 nM | –
CN(CCNCC(F)(F)F)c1cc(C(=O)NC[C@H](O)CN2CCc3ccccc3C2)ccn1 [Compound 359] | 1000 to 10000 nM | < 100 nM | 101 to 1000 nM | – | – | – | –
O=C(NC[C@H](O)CN1CCc2ccccc2C1)c1cncc(NC2CCN(CC(F)(F)F)C2)c1 (stereo partly drawn) [Compound 303] | 1000 to 10000 nM | 101 to 1000 nM | 101 to 1000 nM | – | – | – | –
CC(C)CN1CC(Nc2cc(C(=O)NC[C@H](O)CN3CCc4ccccc4C3)ncn2)C1 [Compound 438] | – | – | – | 1000 to 10000 nM | < 100 nM | 101 to 1000 nM | –
CCSCCNc1cc(C(=O)NC[C@H](O)CN2CCc3ccccc3C2)ncn1 [Compound 556] | – | – | – | – | < 100 nM | < 100 nM | 101 to 1000 nM
CS(=O)(=O)Nc1ccc(C(=O)NCC(O)CN2CCc3ccccc3C2)cc1 (stereo not drawn) [Compound 31] | 10000 to 50000 nM | 101 to 1000 nM | 101 to 1000 nM | – | – | – | –
O=C(NC[C@H](O)CN1CCc2ccccc2C1)c1cc(NC2COC2)nc(N2CCN(C(=O)C3CC3)CC2)n1 [Compound 498] | – | – | – | < 100 nM | < 100 nM | < 100 nM | –
CC1(C)CC(Nc2cc(C(=O)NC[C@H](O)CN3CCc4ccccc4C3)ncn2)CC(C)(C)N1 [Compound 430] | – | – | – | 1000 to 10000 nM | < 100 nM | 101 to 1000 nM | –
CC(=O)N1CCC(Nc2cc(C(=O)NC[C@H](O)CN3CCc4ccccc4C3)nc(N(C)C)c2)CC1 [Compound 685] | – | – | – | 101 to 1000 nM | < 100 nM | < 100 nM | –
Cc1ncc(NC2CCNC2)cc1C(=O)NC[C@H](O)CN1CCc2ccccc2C1 (stereo partly drawn) [Compound 310] | 101 to 1000 nM | < 100 nM | < 100 nM | – | – | – | –
CCCC(=O)N1CCC(Nc2cc(C(=O)NC[C@H](O)CN3CCc4ccccc4C3)ccn2)CC1 [Compound 468] | – | – | – | < 100 nM | < 100 nM | < 100 nM | –
CC(C)CC(=O)N1CCC(Nc2cc(C(=O)NC[C@H](O)CN3CCc4ccccc4C3)ncn2)CC1 [Compound 409] | – | – | – | < 100 nM | < 100 nM | < 100 nM | –
CC(=O)N[C@H]1C[C@H](Nc2cc(C(=O)NC[C@H](O)CN3CCc4ccccc4C3)ncn2)C1 [Compound 440] | – | – | – | 101 to 1000 nM | < 100 nM | < 100 nM | –
CC(=O)N1CC(Nc2cc(C(=O)NC[C@H](O)CN3CCc4ccccc4C3)nc(C(C)(C)C)n2)C1 [Compound 546] | – | – | – | < 100 nM | < 100 nM | < 100 nM | –
O=C(NC[C@H](O)CN1CCc2ccccc2C1)c1ncnc(NC2COC2)c1Cl [Compound 437] | – | – | – | 1000 to 10000 nM | < 100 nM | < 100 nM | –
CC(C)(C)C(=O)N1CCC(Nc2cc(C(=O)NC[C@H](O)CN3CCc4ccccc4C3)ncn2)CC1 [Compound 410] | – | – | – | < 100 nM | < 100 nM | < 100 nM | –

Compound | EC50 (Z-138 cell line; 120 h, Z-138 cells, 5 days) | IC50 (PRMT5/MEP50) | EC50 [1] | EC50 (Z-138 cell line; [2]) | IC50 (PRMT5/MEP50; PRMT5 biochemical assay) | EC50 ([1]; In Cell Western methylation) | EC50 (Z-138 cell line; Z-138, 120 h)
CC(=O)N1CCC(Nc2ccnc(C(=O)NC[C@H](O)CN3CCc4ccccc4C3)c2)CC1 [Compound 551] | – | – | – | < 100 nM | < 100 nM | < 100 nM | –
COC(CNC(=O)c1cc(NC2CCN(C(C)=O)CC2)ncn1)CN1CCc2ccccc2C1 (stereo not drawn) [Compound 542] | – | – | – | > 5000 nM | 101 to 1000 nM | 101 to 1000 nM | –
CN(C)C(=O)[C@H]1C[C@@H](Nc2cc(C(=O)NC[C@H](O)CN3CCc4ccccc4C3)ncn2)C1 [Compound 515] | – | – | – | 101 to 1000 nM | < 100 nM | < 100 nM | –
CC(O)(CNC(=O)c1cc(NC2COC2)ncn1)CN1CCc2ccccc2C1 (stereo not drawn) [Compound 646] | – | – | – | > 20000 nM | 101 to 1000 nM | 101 to 1000 nM | –
CCCC(=O)N1CC(Nc2cc(C(=O)NC[C@H](O)CN3CCc4ccccc4C3)ncn2)C1 [Compound 415] | – | – | – | < 100 nM | < 100 nM | < 100 nM | –
CNCCOc1ccc(C(=O)NC[C@H](O)CN2CCc3ccccc3C2)cc1 [Compound 386] | 1000 to 10000 nM | < 100 nM | < 100 nM | – | – | – | –
O=C(NC[C@H](O)CN1CCc2ccccc2C1)c1cc(N[C@H]2C[C@@H](N3CCOCC3)C2)ncn1 [Compound 637] | – | – | – | 101 to 1000 nM | < 100 nM | < 100 nM | –
CC(=O)N1CC(Nc2cc(C(=O)NC[C@H](O)CN3CCc4ccccc4C3C)ncn2)C1 (stereo partly drawn) [Compound 583] | – | – | – | 1000 to 10000 nM | < 100 nM | < 100 nM | –
O=C(NC[C@H](O)CN1CCc2ccccc2C1)c1ccc(OCCCN2CCC2)cc1 [Compound 373] | 1000 to 10000 nM | < 100 nM | < 100 nM | – | – | – | –
O=C(NC[C@H](O)CN1CCc2ccccc2C1)c1cc(NC2COC2)nc(NC2COC2)n1 [Compound 547] | – | – | – | < 100 nM | < 100 nM | < 100 nM | –
COCC(=O)N1CC(Nc2cc(C(=O)NC[C@H](O)CN3CCc4ccccc4C3)ncn2)C1 [Compound 531] | – | – | – | 101 to 1000 nM | < 100 nM | < 100 nM | –
Cc1cccc2c1CN(C[C@@H](O)CNC(=O)c1cc(NC3COC3)ncn1)CC2 [Compound 673] | – | – | – | 1000 to 10000 nM | < 100 nM | < 100 nM | –
CO[C@H]1CC[C@@H](Nc2cc(C(=O)NC[C@H](O)CN3CCc4ccccc4C3)ncn2)CC1 [Compound 624] | – | – | – | < 100 nM | < 100 nM | < 100 nM | –
CC(C)NCCCOc1ccc(C(=O)NC[C@H](O)CN2CCc3ccccc3C2)cc1 [Compound 374] | 1000 to 10000 nM | < 100 nM | < 100 nM | – | – | – | –
CN(C)[C@H]1C[C@@H](Nc2cc(C(=O)NC[C@H](O)CN3CCc4ccccc4C3)ncn2)C1 [Compound 377] | 1000 to 10000 nM | < 100 nM | 101 to 1000 nM | – | – | – | –
CNCCCOc1ccc(C(=O)NC[C@H](O)CN2CCc3ccccc3C2)cc1 [Compound 392] | 1000 to 10000 nM | < 100 nM | < 100 nM | – | – | – | –
